Measured values published in PubChem BioAssay (NCI).
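Interpolation was linear, between the two tested concentrations surrounding the appropriate level; five concentrations were tested over 48 hours in 96-well plates. Here, GI50 denotes the concentration required for 50% inhibition of growth. TGI marks complete inhibition of growth.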

Legend:
Experiment in all cases: growth of human tumour cells (NCI), 48 h
SK-OV-3 ovarian = tested on: SK-OV-3 ovarian
CCRF-CEM leukemia = tested on: CCRF-CEM leukemia
NCI-H522 lung = tested on: NCI-H522 lung
UACC-62 melanoma = tested on: UACC-62 melanoma
K-562 leukemia = tested on: K-562 leukemia
NCI-H460 lung = tested on: NCI-H460 lung
HOP-62 NSCLC = tested on: HOP-62 NSCLC
786-0 renal = tested on: 786-0 renal
SF-295 CNS = tested on: SF-295 CNS
MALME-3M melanoma = tested on: MALME-3M melanoma
MDA-MB-435 = tested on: MDA-MB-435
SN12C renal = tested on: SN12C renal
SK-MEL-28 melanoma = tested on: SK-MEL-28 melanoma
SK-MEL-5 melanoma = tested on: SK-MEL-5 melanoma
T-47D breast = tested on: T-47D breast
SW-620 colon = tested on: SW-620 colon
SF-539 CNS = tested on: SF-539 CNS
UACC-257 melanoma = tested on: UACC-257 melanoma
ACHN renal = tested on: ACHN renal
SNB-75 CNS = tested on: SNB-75 CNS
HOP-92 NSCLC = tested on: HOP-92 NSCLC
HT29 colon = tested on: HT29 colon
KM12 colon = tested on: KM12 colon
U251 CNS = tested on: U251 CNS
HCT-15 colon = tested on: HCT-15 colon
DU-145 prostate = tested on: DU-145 prostate
MOLT-4 leukemia = tested on: MOLT-4 leukemia
RXF 393 renal = tested on: RXF 393 renal
SNB-19 CNS = tested on: SNB-19 CNS
COLO 205 colon = tested on: COLO 205 colon
OVCAR-4 ovarian = tested on: OVCAR-4 ovarian
MDA-MB-231 breast = tested on: MDA-MB-231 breast
HL-60(TB) leukemia = tested on: HL-60(TB) leukemia
SR leukemia = tested on: SR leukemia
SF-268 CNS = tested on: SF-268 CNS
M14 melanoma = tested on: M14 melanoma
MCF7 breast = tested on: MCF7 breast
UO-31 renal = tested on: UO-31 renal
EKVX NSCLC = tested on: EKVX NSCLC
HCT-116 colon = tested on: HCT-116 colon
BT-549 breast = tested on: BT-549 breast
HS 578T breast = tested on: HS 578T breast
NCI/ADR-RES ovarian = tested on: NCI/ADR-RES ovarian
OVCAR-5 ovarian = tested on: OVCAR-5 ovarian
OVCAR-8 ovarian = tested on: OVCAR-8 ovarian
NCI-H23 lung = tested on: NCI-H23 lung
NCI-H226 lung = tested on: NCI-H226 lung
A498 renal = tested on: A498 renal
PC-3 prostate = tested on: PC-3 prostate
TK-10 renal = tested on: TK-10 renal
IGROV1 ovarian = tested on: IGROV1 ovarian
RPMI-8226 leukemia = tested on: RPMI-8226 leukemia
CAKI-1 renal = tested on: CAKI-1 renal
SK-MEL-2 melanoma = tested on: SK-MEL-2 melanoma
A549 NSCLC = tested on: A549 NSCLC
HCC-2998 colon = tested on: HCC-2998 colon

## O=c1oc2ccc(-c3ccc(F)cc3F)cc2c(=O)n1-c1ccc(F)c(F)c1
SK-OV-3 ovarian
  GI50: 1270 nM
  TGI: > 50000 nM
CCRF-CEM leukemia
  GI50: 1470 nM
  TGI: > 50000 nM
NCI-H522 lung
  GI50: 666 nM
  TGI: 8620 nM
UACC-62 melanoma
  GI50: 519 nM
  TGI: 1670 nM
K-562 leukemia
  GI50: 1160 nM
  TGI: > 50000 nM
NCI-H460 lung
  GI50: 1320 nM
  TGI: > 50000 nM
HOP-62 NSCLC
  GI50: 1410 nM
  TGI: 5940 nM
786-0 renal
  GI50: 1670 nM
  TGI: > 50000 nM
SF-295 CNS
  GI50: 1150 nM
  TGI: 3210 nM
MALME-3M melanoma
  GI50: 874 nM
  TGI: 2510 nM
MDA-MB-435
  GI50: 1280 nM
  TGI: 5460 nM
SN12C renal
  GI50: 1030 nM
  TGI: 4290 nM
SK-MEL-28 melanoma
  GI50: 1190 nM
  TGI: 8200 nM
SK-MEL-5 melanoma
  GI50: 562 nM
  TGI: 1440 nM
T-47D breast
  GI50: 418 nM
  TGI: 3640 nM
SW-620 colon
  GI50: 1770 nM
  TGI: > 50000 nM
SF-539 CNS
  GI50: 1690 nM
  TGI: 13800 nM
UACC-257 melanoma
  GI50: 730 nM
  TGI: 4040 nM
ACHN renal
  GI50: 1410 nM
  TGI: 4880 nM
SNB-75 CNS
  GI50: 775 nM
  TGI: 2540 nM
HOP-92 NSCLC
  GI50: 389 nM
  TGI: 2280 nM
HT29 colon
  GI50: 8900 nM
  TGI: > 50000 nM
KM12 colon
  GI50: 1560 nM
  TGI: 5260 nM
U251 CNS
  GI50: 1530 nM
  TGI: > 50000 nM
HCT-15 colon
  GI50: 1340 nM
  TGI: 5240 nM
DU-145 prostate
  GI50: 1750 nM
  TGI: > 50000 nM
MOLT-4 leukemia
  GI50: 1480 nM
  TGI: 6730 nM
RXF 393 renal
  GI50: 1270 nM
  TGI: 4020 nM
SNB-19 CNS
  GI50: 1610 nM
  TGI: > 50000 nM
COLO 205 colon
  GI50: 8250 nM
  TGI: 27100 nM
OVCAR-4 ovarian
  GI50: 1350 nM
  TGI: > 50000 nM
MDA-MB-231 breast
  GI50: 894 nM
  TGI: 2340 nM
HL-60(TB) leukemia
  GI50: 1060 nM
  TGI: 3070 nM
SR leukemia
  GI50: 1870 nM
  TGI: > 50000 nM
SF-268 CNS
  GI50: 1380 nM
  TGI: > 50000 nM
M14 melanoma
  GI50: 1610 nM
  TGI: 35500 nM
MCF7 breast
  GI50: 1220 nM
  TGI: > 50000 nM
UO-31 renal
  GI50: 1100 nM
  TGI: 4670 nM
EKVX NSCLC
  GI50: 1460 nM
  TGI: 7350 nM
HCT-116 colon
  GI50: 1260 nM
  TGI: 5430 nM
BT-549 breast
  GI50: 1350 nM
  TGI: 4900 nM
HS 578T breast
  GI50: 1570 nM
  TGI: > 50000 nM
NCI/ADR-RES ovarian
  GI50: 1320 nM
  TGI: > 50000 nM
OVCAR-5 ovarian
  GI50: 1620 nM
  TGI: > 50000 nM
OVCAR-8 ovarian
  GI50: 1620 nM
  TGI: > 50000 nM
NCI-H23 lung
  GI50: 936 nM
  TGI: 2970 nM
NCI-H226 lung
  GI50: 1410 nM
  TGI: 6240 nM
A498 renal
  GI50: 374 nM
  TGI: 1700 nM
PC-3 prostate
  GI50: 1420 nM
  TGI: > 50000 nM
TK-10 renal
  GI50: 1610 nM
  TGI: 16900 nM
IGROV1 ovarian
  GI50: 1700 nM
  TGI: > 50000 nM
RPMI-8226 leukemia
  GI50: 589 nM
  TGI: 2400 nM
CAKI-1 renal
  GI50: 963 nM
  TGI: 3210 nM
SK-MEL-2 melanoma
  GI50: 797 nM
  TGI: 3070 nM
A549 NSCLC
  GI50: 1580 nM
  TGI: > 50000 nM
HCC-2998 colon
  GI50: 1700 nM
  TGI: 48700 nM
